Source: patent US20050020550A1, “Selective testicular 11beta-HSD inhibitors and methods of use thereof” (priority 2003, published 2005)

Assays:
11β-HSD1 Reductase = molecular target: T1, 11β-HSD1 Reductase (Rattus norvegicus, UniProt P16232); assay: Inhibition of 11β-HSD1 reductase (Table 1); assay type: cell-based
T1 construct: an enzyme present in testicular Leydig cells; endogenous in cells; host or cells: freshly prepared rat Leydig cells

11β-HSD1 Dehydrogenase = molecular target: T2, 11β-HSD1 Dehydrogenase (Rattus norvegicus, UniProt P16232); assay: Inhibition of 11β-HSD1 dehydrogenase (Table 1); assay type: cell-based
T2 construct: an enzyme present in testicular Leydig cells; endogenous in cells; host or cells: freshly prepared rat Leydig cells
T2 sequence (P16232 whole entry): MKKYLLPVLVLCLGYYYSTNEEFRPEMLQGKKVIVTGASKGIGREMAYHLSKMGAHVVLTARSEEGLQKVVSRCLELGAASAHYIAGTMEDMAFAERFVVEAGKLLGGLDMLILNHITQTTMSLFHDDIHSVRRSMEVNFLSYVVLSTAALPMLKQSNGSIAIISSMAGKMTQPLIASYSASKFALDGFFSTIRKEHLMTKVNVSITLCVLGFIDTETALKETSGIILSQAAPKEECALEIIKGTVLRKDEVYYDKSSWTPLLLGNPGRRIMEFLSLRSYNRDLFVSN

11β-HSD2 Dehydrogenase = molecular target: T3, 11β-HSD2 Dehydrogenase (Homo sapiens, UniProt P80365); assay: Inhibition of 11β-HSD2 dehydrogenase (Table 1); assay type: biochemical
T3 sequence (P80365 1-405): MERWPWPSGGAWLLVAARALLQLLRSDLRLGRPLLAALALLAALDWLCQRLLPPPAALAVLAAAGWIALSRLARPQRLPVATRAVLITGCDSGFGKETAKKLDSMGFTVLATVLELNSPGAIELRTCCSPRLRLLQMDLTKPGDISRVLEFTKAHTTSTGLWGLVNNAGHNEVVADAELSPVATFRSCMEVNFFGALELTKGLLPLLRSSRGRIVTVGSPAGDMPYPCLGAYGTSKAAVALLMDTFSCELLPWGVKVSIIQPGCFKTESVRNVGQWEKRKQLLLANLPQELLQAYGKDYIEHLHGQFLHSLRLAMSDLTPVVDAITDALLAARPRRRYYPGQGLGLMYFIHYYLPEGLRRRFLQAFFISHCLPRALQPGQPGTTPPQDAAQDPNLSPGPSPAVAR

T1 sequence (P16232 whole entry): as the sequence (P16232 whole entry) above

SMILES	11β-HSD1 Reductase (inhibition) (11β-HSD1 Reductase)	11β-HSD1 Dehydrogenase (inhibition) (11β-HSD1 Dehydrogenase)	11β-HSD2 Dehydrogenase (inhibition) (11β-HSD2 Dehydrogenase)
C[C@]12CCC(=O)C=C1CC[C@@H]1[C@H]2C(=O)C[C@]2(C)C(=O)CC[C@H]12 (stereo in doubt) [11-Keto-androstenedione]	Selective Inhibitor	No Inhibition	No Inhibition
C[C@]12CC[C@@H]3[C@@H]([C@@H](O)C[C@]4(C=O)[C@@H](C(=O)CO)CC[C@H]34)[C@@]1(C)CC[C@H](O)C2 [3α,5α-reduced aldosterone]	No Inhibition	Moderate Inhibitor	Potent Inhibitor
C[C@]12CC[C@H](O)C[C@@H]1CC[C@@H]1[C@@H]2C(=O)C[C@]2(C)C(=O)CC[C@@H]12 [3α,5α-reduced-11-keto-androstenedione]	Selective Inhibitor	No Inhibition	–
CC(=O)[C@H]1CC[C@@H]2[C@@H]3CC[C@@H]4C[C@@H](O)CC[C@]4(C)[C@@H]3C(=O)C[C@]12C [3α,5α-reduced-11-keto-progesterone]	Selective Inhibitor	No Inhibition	Potent Inhibitor
C[C@]12CC[C@H](O)C[C@@H]1CC[C@H]1[C@@H]3CC[C@H](O)[C@@]3(C)CC(=O)[C@@H]12 [3α,5α-reduced-11-keto-testosterone]	Selective Inhibitor	No Inhibition	–
C[C@]12CC[C@H](O)C[C@H]1CC[C@@H]1[C@H]2[C@@H](O)C[C@]2(C)C(=O)CC[C@H]12 [3α,5α-reduced- 11β-OH—androstenedione]	No Inhibition	Moderate Inhibitor	Potent Inhibitor (Non-Selective)
CC(=O)[C@H]1CC[C@@H]2[C@@H]3CC[C@@H]4C[C@@H](O)CC[C@]4(C)[C@@H]3[C@@H](O)C[C@]12C [3α,5α-reduced- 11β-OH—progesterone]	No Inhibition	Potent Inhibitor (Non-Selective)	Potent Inhibitor (Non-Selective)
C[C@]12CC[C@H](O)C[C@H]1CC[C@@H]1[C@H]2[C@@H](O)C[C@@]2(C)[C@@H]1CC[C@@H]2O [3α,5α-reduced- 11β-OH—testosterone]	No Inhibition	Potent Inhibitor (Non-Selective)	Potent Inhibitor (Non-Selective)
C[C@]12CC[C@H](O)C[C@@H]1CC[C@@H]1[C@@H]2[C@@H](O)C[C@]2(C)[C@@H](C(=O)CO)CC[C@@H]12 [3α,5α-reduced- corticosterone]	No Inhibition	Potent Inhibitor	Potent Inhibitor
C[C@]12CC[C@H](O)C[C@@H]1CC[C@H]1[C@@H]3CC[C@H](C(=O)CO)[C@@]3(C)CC(=O)[C@@H]12 [3α,5α-tetrahydro-11-dehydro-corticosterone]	Potent Inhibitor	No Inhibition	Potent Inhibitor
CC(=O)[C@H]1CC[C@@H]2[C@@H]3CC[C@@H]4C[C@@H](O)CC[C@]4(C)[C@@H]3[C@@H](O)C[C@]12C [3α,5β-reduced- 11β-OH—progesterone]	No Inhibition	Moderate Inhibitor	No Inhibition
CC(=O)[C@H]1CC[C@@H]2[C@@H]3CCC4=CC(=O)CC[C@]4(C)[C@@H]3[C@@H](O)C[C@]12C [11β-OH—progesterone]	No Inhibition	Potent Inhibitor (Non-Selective)	–
